Data from PubChem BioAssay AID789 (SRMLSC, 2007).
Active and inactive are the calls of the source. The rule behind the calls is not given here.

Legend:
[1] = growth inhibition of apl2Δ yeast, dose response, selectivity assay for post-Golgi transport modulator project, S. cerevisiae, secondary screen, background strain comparison (AID 789); conditions: S. cerevisiae background (wild-type parent) strain growth inhibition
[2] = test system: S. cerevisiae apl2Δ mutant growth inhibition; assay: as above

SMILES | IC50 [1] | IC50 [2]
COc1cccc(OCCCCN2CC(C)OC(C)C2)c1 (configuration not stated) | > 10 µM | > 10 µM (inactive)
Fc1ccc(-c2noc(C3CCN(Cc4cccnc4)CC3)n2)cc1 | > 10 µM | > 10 µM (inactive)
O=C(Cn1ncc2c3ccccc3n(Cc3ccccc3F)c2c1=O)N1CCC2(CC1)OCCO2 | > 10 µM | > 10 µM (inactive)
OC(Cn1ccnc1)c1ccc(Cl)cc1Cl (configuration not stated) | > 10 µM | > 10 µM (inactive)
O=C(NCC(=O)N(c1cccnc1)C(C(=O)NCc1ccco1)c1ccccc1)c1ccco1 (configuration not stated) | > 10 µM | > 10 µM (inactive)
CCOC(=O)C1=C(CSc2nc(-c3ccccc3)ccc2C#N)OC(N)=C(C#N)C1c1cccnc1 (configuration not stated) | > 10 µM | > 10 µM (inactive)
CCOC(=O)c1c(CN2CCCCC2C)oc2ccc(OC)cc12 (configuration not stated) | > 10 µM | > 10 µM (inactive)
Cc1cc(Cl)cc(C)c1OCCCCN1CCOCC1 | > 10 µM | > 10 µM (inactive)
O=C1CN(C(=O)CSc2nnc(-c3ccccc3)n2Cc2ccc3c(c2)OCO3)c2ccccc2N1 | > 10 µM | > 10 µM (inactive)
O=c1cccc2n1CC1CC2CN(S(=O)(=O)c2ccccc2)C1 (configuration not stated) | > 10 µM | > 10 µM (inactive)
CCc1cc2c(=O)c(Oc3ccccc3F)c(C)oc2c(CN(C)C)c1O | > 10 µM | > 10 µM (inactive)
Clc1ccc(-c2n[nH]c3c2CCC3)c(Cl)c1 | 0.518 µM | 1.12 µM (inactive)
Cc1cccc(-n2c(N)c(C(=O)NCCN3CCOCC3)c3nc4ccccc4nc32)c1 | > 10 µM | > 10 µM (inactive)
CCOC(=O)Cc1c(C)c2ccc(N(CC)CC)cc2oc1=O | > 10 µM | > 10 µM (inactive)
Cc1ccc(-n2cc3c(-c4cccc(Br)c4)nnc(C)c3n2)cc1 | 13.5 µM | 15.4 µM (inactive)
Cc1cc(C)nc(N/N=C/C(Cl)=C/c2ccccc2)n1 | > 10 µM | > 10 µM (inactive)
Cc1ccc(CN2CCN(/N=C/c3cc(Br)ccc3O)CC2)cc1 | > 10 µM | > 10 µM (inactive)
O=C(Nc1nnc(-c2ccc3c(c2)CCCC3)o1)c1ccc(Cl)cc1Cl | 3.46 µM | > 10 µM (inactive)
O=C(NC(C(=O)c1ccccc1)N1CCCCC1)c1ccccc1 (configuration not stated) | > 10 µM | > 10 µM (inactive)
Cc1cc([N+](=O)[O-])c(-c2ccc(/C=N/n3cnnc3)o2)cc1Cl | 0.134 µM | 0.526 µM (inactive)
O=C(Cc1cccs1)Nc1nc2c(s1)CCCC2 | > 10 µM | > 10 µM (inactive)

SMILES | IC50 [1] | IC50 [2]
CCOC(=O)c1ccc(NC(=O)c2ccc(CN3CCOCC3)cc2)cc1 | > 10 µM | > 10 µM (inactive)
O=C(Nc1nnc(-c2ccc3c(c2)CCCC3)o1)c1ccccc1Cl | 10.7 µM | > 10 µM (inactive)
O=C(NCC(c1cccnc1)N1CCN(c2ccccc2)CC1)c1ccc2c(c1)OCO2 (configuration not stated) | > 10 µM | > 10 µM (inactive)
Cc1ccc(S(=O)(=O)N(CC(=O)N2CCC(C(N)=O)CC2)c2cccc(C(F)(F)F)c2)cc1 | > 10 µM | > 10 µM (inactive)
O=c1c2cccc3c2c(nn1CN1CCOCC1)-c1ccccc1-3 | > 10 µM | > 10 µM (inactive)
CCOC(=O)C1=C(N)N2C(=O)C(C)SC2=C(C(=O)OC)C1c1ccccc1OC (configuration not stated) | 0.163 µM | 9.99 µM (inactive)
C=C(C)COc1ccc(-c2ncncc2Oc2ccc(OC)cc2)c(O)c1 | > 10 µM | > 10 µM (inactive)
O=C(NCc1ccc2c(c1)OCO2)C1CCCN1C(=O)Nc1ccccc1 (configuration not stated) | > 10 µM | > 10 µM (inactive)
CCC(C)c1ccc(OCCCCN2CCOCC2)cc1 (configuration not stated) | > 10 µM | 24 µM
Cc1c(C)c2cc(Cl)c(O)c(CN3CCN(C)CC3)c2oc1=O | > 10 µM | > 10 µM (inactive)
CCOCCCNC(=O)C1CCN(C(=O)N(C)C)CC1 | > 10 µM | > 10 µM (inactive)
CCCn1c(SCc2cc(=O)oc3ccc4ccccc4c23)n[nH]c1=O | > 10 µM | > 10 µM (inactive)
O=C(Cn1nnc(-c2ccc(S(=O)(=O)N3CCCC3)cc2)n1)NCC1CCCO1 (configuration not stated) | > 10 µM | > 10 µM (inactive)
Clc1ccc2[nH]c3c(NCC4CCCO4)ncnc3c2c1 (configuration not stated) | > 10 µM | > 10 µM (inactive)
CCSc1nnc(NC(=O)NCC(F)(F)F)s1 | > 10 µM | > 10 µM (inactive)
CCN(CC)CCn1nc(C)nc1-c1ccccc1O | > 10 µM | > 10 µM (inactive)
O=C(COc1ccc(Cl)cc1Cl)NCCCN1CCOCC1 | > 10 µM | > 10 µM (inactive)
Cc1cccnc1Nc1nc(-c2ccccn2)cs1 | > 10 µM | > 10 µM (inactive)
CCOC(=O)C(C)Oc1ccc2c(C)cc(=O)oc2c1C(C)=O (configuration not stated) | > 10 µM | > 10 µM (inactive)
O=C(N/N=C/c1ccc(OC(=O)c2ccccc2)cc1)c1ccc(CN2CCOCC2)cc1 | > 10 µM | > 10 µM (inactive)
CC(C)c1ccc(C2C3CSCC=C3C(C#N)=C(N)C2(C#N)C#N)cc1 (configuration not stated) | 0.843 µM | 1.84 µM (inactive)

SMILES | IC50 [1] | IC50 [2]
Cc1cccc(-c2c3c(=O)n(C)c(=O)n(C)c3cn2C2CCCCC2)c1 | > 10 µM | > 10 µM (inactive)
Cc1ccc(S(=O)(=O)N2CCN(C3CCN(Cc4ccccc4)CC3)CC2)cc1 | > 10 µM | > 10 µM (inactive)
O=C(COc1ccc(Br)cc1F)NC1CCN(Cc2ccccc2)CC1 | > 10 µM | > 10 µM (inactive)
CCn1c(=O)[nH]c2cc(C(=O)N3CCN(c4ccccc4)CC3)ccc2c1=O | > 10 µM | > 10 µM (inactive)
CCCCOc1ccc(-c2ncc(C(=O)O)c(C)n2)cc1 | > 10 µM | > 10 µM (inactive)
COc1ccc(NC(=O)c2ccc(CN3CCN(c4ccccc4)CC3)cc2)cc1 | > 10 µM | > 10 µM (inactive)
CCCc1cc(NCCCCO)n2c(nc3ccccc32)c1C#N | > 10 µM | > 10 µM (inactive)
O=C(OCn1nnc2ccccc2c1=O)c1cn(-c2ccccc2)nc1-c1cccnc1 | > 10 µM | > 10 µM (inactive)
Cc1ccc(N2CCN(S(=O)(=O)N3CCCCCC3)CC2)cc1Cl | > 10 µM | > 10 µM (inactive)
COc1ccc(Cl)cc1NC(=O)C(C)N1CCN(C/C=C/c2ccccc2)CC1 (configuration not stated) | 15 µM | 20.4 µM (inactive)
CC1CC(C)CN(CCOc2ccc(Cl)cc2Cl)C1 (configuration not stated) | > 10 µM | > 10 µM (inactive)
N=c1nc(N)nc2n1NC(c1ccc(F)cc1)=CS2 | > 10 µM | > 10 µM (inactive)
O=C(c1ccco1)N1CCN(c2ncnc3c2[nH]c2ccccc23)CC1 | > 10 µM | > 10 µM (inactive)
CCOc1cccc(C(=O)Nc2cccnc2)c1 | > 10 µM | > 10 µM (inactive)
Cc1ccc(C(=O)NCc2occc2C(=O)O)o1 | > 10 µM | > 10 µM (inactive)
c1ccc(Nc2cc(-c3ccccc3)nc3ncnn23)cc1 | > 10 µM | > 10 µM (inactive)
C/C(=N\N=C(/N)SC1CC(=O)N(c2ccc(Cl)c(Cl)c2)C1=O)c1cccs1 (configuration not stated) | 5.98 µM | > 10 µM (inactive)
O=C(NC1CCN(Cc2ccccc2)CC1)C1COc2ccccc2O1 (configuration not stated) | > 10 µM | > 10 µM (inactive)
COC(=O)c1ccc(CSc2nnc(NC(C)C)s2)cc1 | > 10 µM | > 10 µM (inactive)
Cc1ccc(SC(C)C(=O)Nc2ncn[nH]2)cc1 (configuration not stated) | > 10 µM | > 10 µM (inactive)
CCC(OC(=O)C(NC(=O)c1ccccc1)c1ccccc1)C(=O)Nc1cc(C)on1 (configuration not stated) | > 10 µM | > 10 µM (inactive)

SMILES | IC50 [1] | IC50 [2]
Cc1cc(C(C)(C)C)ccc1OCCN1CCCC1 | > 10 µM | > 10 µM (inactive)
O=C(NCCSCc1ccc(Cl)cc1Cl)c1ccc(CN2CCOCC2)cc1 | > 10 µM | > 10 µM (inactive)
COc1ccccc1N1CCN(CC(O)c2ccc3cc[nH]c3c2)CC1 (configuration not stated) | > 10 µM | > 10 µM (inactive)
C=C(C)C1CC=C(CN2CCC(C(=O)OCC)CC2)CC1 (configuration not stated) | > 10 µM | > 10 µM (inactive)
O=C(CCl)c1ccc(Cc2ncc(C(F)(F)F)cc2Cl)s1 | 8.68 µM | > 10 µM (inactive)
N#CC1=C(N)C(C#N)(C#N)C(c2cccnc2)C2CC(c3ccccc3)CC=C12 (configuration not stated) | 2.97 µM | 4.06 µM (inactive)
O=S(=O)(NCC(c1cccnc1)N1CCN(c2ccccc2)CC1)c1cccs1 (configuration not stated) | > 10 µM | > 10 µM (inactive)
Nc1cc(N)c(OCC(F)(F)F)cc1OCC(F)(F)F | > 10 µM | > 10 µM (inactive)
CCN1C(=O)c2ccc(C(=O)NCc3ccccc3)cc2C1=O | > 10 µM | > 10 µM (inactive)
CCN(CC)c1nc2cc(OC)ccc2cc1C#N | > 10 µM | > 10 µM (inactive)
N#Cc1nc(COc2ccc(-c3ccccc3)cc2)oc1NCCCN1CCOCC1 | 15.4 µM | 17.2 µM (inactive)
CCOC(=O)NC(Nc1ccc(S(N)(=O)=O)cc1)(C(=O)OCC)C(F)(F)F (configuration not stated) | > 10 µM | > 10 µM (inactive)
CCOC(=O)N1CCN(c2ccc(S(=O)(=O)N(Cc3ccccc3)Cc3ccccc3)cn2)CC1 | > 10 µM | > 10 µM (inactive)
Cn1c(=O)cc(NCc2ccccc2)[nH]c1=O | > 10 µM | > 10 µM (inactive)
CC1CN(CC(O)COc2ccc(C(C)C)cc2)CC(C)O1 (configuration not stated) | > 10 µM | > 10 µM (inactive)
N#CC1=C2SCC(O)(c3ccccc3)N2C(=O)CC1c1ccccc1 (configuration not stated) | > 10 µM | > 10 µM (inactive)
Cc1ccc(C(=O)OCn2ncc(Cl)c(Cl)c2=O)cc1 | 4.62 µM | > 10 µM (inactive)
COc1ccc(C2C3=C(CCCC3=O)Nc3nc(-c4cc(OC)c(OC)c(OC)c4)nn32)cc1OC (configuration not stated) | > 10 µM | > 10 µM (inactive)
